Assays:
Test in all cases: relative viability (nuclei count vs DMSO), 5 days (fraction); higher = more cells survive
[1] = tested on: NCI-H2347; settings: first compound 2.53 µM
How it was run: (§1)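 Relative viability divides the nuclei count in treated wells by that in vehicle wells. Lung cancer cell lines were seeded in 1536-well plates, dosed by pin tool the next day, and fixed and stained after 5 days in one step with final 0.05% Triton X-100, 1% formaldehyde and 1 ug/ml Hoechst. Dosing was a single drug or a fixed anchor-drug dose plus five library-drug doses (not always all listed) in √10 steps, and values are medians of duplicate plates imaged at 4×.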

[2] = tested on: EMC-BAC-2
How it was run: as §1

[3] = tested on: EKVX
How it was run: as §1

[4] = tested on: NCI-H2085
How it was run: as §1

[5] = tested on: LK-2
How it was run: as §1

[6] = tested on: LXF-289
How it was run: as §1

[7] = tested on: CAL-12T
How it was run: as §1

[8] = tested on: NCI-H1755
How it was run: as §1

[9] = tested on: SK-LU-1
How it was run: as §1

[10] = tested on: SK-MES-1
How it was run: as §1

[11] = tested on: NCI-H1793
How it was run: as §1

[12] = tested on: NCI-H2228
How it was run: as §1

SMILES: Cc1cnc(-c2cnc(NCCNc3ccc(C#N)cn3)nc2-c2ccc(Cl)cc2Cl)[nH]1 + COc1cccc2cc(-c3nc([C@H]4CC[C@H](C(=O)O)CC4)n4ncnc(N)c34)[nH]c12 [OSI-027] (partner 0.5 µM)
- relative viability [1]: 0.426
- relative viability ([2]; first compound 0.08 µM): 0.407
- relative viability ([2]; first compound 0.253 µM): 0.37
- relative viability ([2]; first compound 0.8 µM): 0.341
- relative viability ([2]; first compound 2.53 µM): 0.447
- relative viability ([3]; first compound 0.08 µM): 0.768
- relative viability ([3]; first compound 0.253 µM): 0.706
- relative viability ([3]; first compound 0.8 µM): 0.589
- relative viability ([3]; first compound 2.53 µM): 0.624
- relative viability ([4]; first compound 0.08 µM): 0.812
- relative viability ([4]; first compound 0.253 µM): 0.786
- relative viability ([4]; first compound 0.8 µM): 0.677
- relative viability ([4]; first compound 2.53 µM): 0.756
- relative viability ([5]; first compound 0.08 µM): 0.204
- relative viability ([5]; first compound 0.253 µM): 0.248
- relative viability ([5]; first compound 0.8 µM): 0.231
- relative viability ([5]; first compound 2.53 µM): 0.318
- relative viability ([6]; first compound 0.08 µM): 0.926
- relative viability ([6]; first compound 0.253 µM): 0.777
- relative viability ([6]; first compound 0.8 µM): 0.882
- relative viability ([6]; first compound 2.53 µM): 0.829
- relative viability ([7]; first compound 0.08 µM): 0.774
- relative viability ([7]; first compound 0.253 µM): 0.59
- relative viability ([7]; first compound 0.8 µM): 0.565
- relative viability ([7]; first compound 2.53 µM): 0.571
- relative viability ([8]; first compound 0.08 µM): 0.81
- relative viability ([8]; first compound 0.253 µM): 0.737
- relative viability ([8]; first compound 0.8 µM): 0.726
- relative viability ([8]; first compound 2.53 µM): 0.756
- relative viability ([9]; first compound 0.08 µM): 0.344
- relative viability ([9]; first compound 0.253 µM): 0.336
- relative viability ([9]; first compound 0.8 µM): 0.35
- relative viability ([9]; first compound 2.53 µM): 0.463
- relative viability ([10]; first compound 0.08 µM): 0.738
- relative viability ([10]; first compound 0.253 µM): 0.594
- relative viability ([10]; first compound 0.8 µM): 0.528
- relative viability ([10]; first compound 2.53 µM): 0.777
- relative viability ([11]; first compound 0.08 µM): 0.322
- relative viability ([11]; first compound 0.253 µM): 0.276
- relative viability ([11]; first compound 0.8 µM): 0.191
- relative viability ([11]; first compound 2.53 µM): 0.279
- relative viability ([12]; first compound 0.08 µM): 0.779
- relative viability ([12]; first compound 0.253 µM): 0.807
- relative viability ([12]; first compound 0.8 µM): 0.569
- relative viability ([12]; first compound 2.53 µM): 0.469
